Test results reported in PubChem BioAssay AID504542 (Sanford-Burnham Center for Chemical Genomics, 2011).
Calls of active or inactive are those of the source. The rule behind the calls is not given here.

The molecules below were run on S. cerevisiae TIM10 counterscreen strain, luminescence (assay: inhibitors of TIM10 yeast strain luminescence, dose response, counter-screen for tim10-1 inhibitor project, S. cerevisiae, uHTS hits (AID 504542)).

First: Cc1ccc(NC(=S)/N=C(\N)Nc2nc(C)c3cc(C)ccc3n2)c(C)c1
Second: COc1cc(OC)c(C(=O)O/N=C(\N)c2ccc(C)cc2)cc1OC
The IC50 of the first is 2-fold higher: 12.1 µM for the first, 5.99 µM for the second. The second is the more potent here.

`Cc1ccc(F)c([C@H]2C3C=CCC(c4ccccc4)C3C(=O)N2Cc2ccccc2)c1` (stereo partly specified) and `C[C@@H]1CC=C[C@H]2[C@H]1C(=O)N(Cc1ccccc1)[C@H]2c1ccc(-c2ccoc2)cc1F` are within 1.5-fold of each other in IC50: 6.99 µM for the first, 7.07 µM for the second.

Compared with `CCOc1ccccc1NC(=O)/C=C/C(N)=O`, `CCCOc1ccccc1NC(=O)/C=C/C(N)=O` is 3.8-fold lower in IC50: 3.32 µM for the first, 0.87 µM for the second.

First: COc1cc(/C=C/c2ccc3cccc(O)c3n2)c(Br)cc1O
Second: N=C(N)c1ccc(/C=C/c2ccc(C(=N)N)cc2O)cc1
The IC50 of the first is 2.1-fold higher: 9.2 µM for the first, 4.36 µM for the second.

`Fc1ccc(CNC(=S)Nc2cccc(C(F)(F)F)c2)cc1` and `Fc1ccccc1CNC(=S)Nc1cccc(C(F)(F)F)c1` are within 1.5-fold of each other in IC50: 8.8 µM for the first, 8.28 µM for the second.

First: CCCCc1ccc(NC(=S)Nc2ccc(Nc3ccc(OC)cc3)cc2)cc1
Second: COc1ccc(/C(C)=N/NC(=S)NCCc2ccccc2)cc1
The IC50 of the first is 1.6-fold higher: 12.4 µM for the first, 7.83 µM for the second. The second is the more potent here.

Going from `CN=C(Nc1cc(Cl)ccc1Cl)SC1CC(=O)N(c2ccc(C(=O)OC)cc2)C1=O` (stereo unspecified) to `COc1ccc(NC2CCN(C3CC(=O)N(c4ccc(F)c(Cl)c4)C3=O)CC2)cc1` (stereo unspecified), the IC50 falls from 6.33 µM to 2.91 µM (2.2-fold). The second is the more potent here.

First: C=CC(=O)Oc1ccc(N2Cc3ccccc3C2=O)cc1
Second: CCOc1ccc(-n2cc(-c3ccccc3)c3c(=O)[nH]cnc32)cc1
The IC50 of the first is 2-fold lower: 2.89 µM for the first, 5.89 µM for the second.

First: CC(C)C(c1nnnn1C1CCCC1)N1CCCc2ccccc21 (stereo unspecified)
Second: O=C(c1ccc2c3n(nc2c1)-c1ccccc1CO3)N1CCCCC1
The IC50 of the first is 1.5-fold lower: 5.94 µM for the first, 8.99 µM for the second. The first is the more potent here.

`CCCOc1ccc(N2C(=O)CC(N3CCC(O)(c4cccc(C(F)(F)F)c4)CC3)C2=O)cc1` (stereo unspecified) and `CCCCCCC(=O)N(O)C1CC(=O)N(c2ccc(C)cc2)C1=O` (stereo unspecified) are within 1.5-fold of each other in IC50: 3.95 µM for the first, 4.38 µM for the second.

`O=C(NC(=S)NNC(=O)c1ccccc1[N+](=O)[O-])c1ccc(Br)cc1` and `O=C(NNC(=S)Nc1cccc(C(F)(F)F)c1)c1cccc(Cl)c1` are within 1.5-fold of each other in IC50: 6.64 µM for the first, 9.48 µM for the second.

First: CCOC(=O)c1ccc(NC(=O)CC2OCCN(CC)C2=O)cc1 (stereo unspecified)
Second: CCOC(=O)/C=C/C(=O)OCC(=O)Nc1ccc([N+](=O)[O-])cc1
The IC50 of the first is 3.1-fold lower: 1.28 µM for the first, 3.98 µM for the second. The first is the more potent here.

Going from `N#C/C(=N/Nc1ccc(OC(F)(F)F)cc1)C(N)=S` to `COc1ccc(-c2nncnn2)cc1`, the IC50 rises from 1.22 µM to 3.43 µM (2.8-fold). The first is the more potent here.

Compared with `CN(CCCC(=O)O)c1ccc(N=Nc2ccc([N+](=O)[O-])cc2)cc1`, `Cc1ccc(/C(N)=N/OC(=O)C(C)c2ccc([N+](=O)[O-])cc2)cc1` (stereo unspecified) is 1.5-fold higher in IC50: 14.5 µM for the first, 22 µM for the second.

`COc1ccc(Br)cc1[C@H]1[C@@H]2C=CCC[C@@]2(C)C(=O)N1Cc1ccccc1` and `Cc1ccc(F)c([C@H]2[C@@H]3C=CCC[C@@]3(C)C(=O)N2Cc2ccccc2)c1` are within 1.5-fold of each other in IC50: 6.12 µM for the first, 7.6 µM for the second.

Compared with `Clc1ccccc1OCc1nnc(-c2ccccc2Br)o1`, `O=c1oc2ccccc2c(O)c1/C=C1\C=Nc2ccccc21` is 2.7-fold lower in IC50: 16.6 µM for the first, 6.1 µM for the second.

Going from `CC1(CC(=O)N/N=C/c2ccc(OCc3ccc(Cl)cc3Cl)cc2)OCCCO1` to `CC(=O)c1ccc(NC(=S)NC(C)c2ccc(Cl)cc2Cl)cc1` (stereo unspecified), the IC50 rises from 2.94 µM to 9.11 µM (3.1-fold).

Going from `COc1ccc(C(=O)Nc2ccc(-n3nncc3C(C)(C)C)cc2)cc1` to `Cc1ccc(NC(=O)c2ccc(Cl)c(N3C(=O)C=CC3=O)c2)cc1`, the IC50 falls from 6.59 µM to 4.36 µM (1.5-fold).

`Fc1c(F)c(C(F)(F)F)c(F)c(F)c1N/N=C\c1cccs1` and `CC(C)c1nnc(NC(=O)CCS(=O)(=O)c2nc(-c3cccs3)cc(C(F)(F)F)n2)s1` are within 1.5-fold of each other in IC50: 4 µM for the first, 4.84 µM for the second.

Compared with `CCCCNC(=S)N=Nc1c(O)[nH]c2ccccc12`, `CCOC(=O)c1c(OCC)[nH]c2c1cc(O)c1ccccc12` is 2.6-fold higher in IC50: 3.19 µM for the first, 8.27 µM for the second. The first is the more potent here.

Going from `CCOC(=O)c1ccc(N=c2ssnc2Cl)cc1` to `COc1cc(N=c2ssnc2Cl)c(OC)cc1Cl`, the IC50 rises from 1.87 µM to 3.15 µM (1.7-fold).

First: COc1ccc(C(=O)O/N=C(\N)Cc2ccc(Cl)c(Cl)c2)cc1OC
Second: COc1ccc(C(=O)O/N=C(\N)c2ccccc2Cl)cc1OC
The IC50 of the first is 12-fold lower: 0.8 µM for the first, 9.27 µM for the second. The first is the more potent here.

`CCOC(=O)c1c(CSc2ccc(C)cc2)n(C)c2cc(Br)c(O)c(CN(C)C)c12` and `Cc1ccc(CNC(=O)c2ccc(Cn3nc(C)c(Cl)c3C)o2)cc1` are within 1.5-fold of each other in IC50: 12.8 µM for the first, 10.1 µM for the second.

First: c1ccc(Nc2cccc(Nc3ccccc3)c2)cc1
Second: Cc1nc(Nc2ccccc2)sc1-c1ccccc1
The IC50 of the first is 1.6-fold higher: 5.02 µM for the first, 3.09 µM for the second. The second is the more potent here.

First: COc1ccc(-c2cc(C3CC3)nc3sc(C#N)c(N)c23)cc1
Second: COc1ccc(-c2sc3cc4c(cc3c2C#CC2(N)CCCCC2)OCO4)cc1
The IC50 of the first is 1.8-fold lower: 4.46 µM for the first, 8.21 µM for the second.

Compared with `Cc1cccc(NC(=S)N/N=C2/CCCCc3ccccc32)c1`, `C/C(=N\NC(=S)NCc1ccccc1)c1ccc(Cl)s1` is 5.1-fold higher in IC50: 2.28 µM for the first, 11.6 µM for the second. The first is the more potent here.

Compared with `COc1ccccc1N1C(=O)CC(Sc2n[nH]c(-c3cccc(C)c3)n2)C1=O` (stereo unspecified), `Cc1cc(C)cc(N2C(=O)CC(Sc3nnnn3-c3ccccc3)C2=O)c1` (stereo unspecified) is 5.2-fold lower in IC50: 3.62 µM for the first, 0.69 µM for the second. The second is the more potent here.

Compared with `Cc1cccc(NC(=O)c2ccc([N+](=O)[O-])s2)n1`, `Cc1ccccc1/C=C/C(=O)c1ccc([N+](=O)[O-])o1` is 2.1-fold lower in IC50: 1.39 µM for the first, 0.66 µM for the second.

`O=C1CC(Sc2nnnn2-c2ccccc2)C(=O)N1c1cccc(Cl)c1` (stereo unspecified) and `CCN(CC)C1CC(=O)N(c2cccc(Cl)c2)C1=O` (stereo unspecified) are within 1.5-fold of each other in IC50: 1.72 µM for the first, 1.74 µM for the second.

First: CC[C@@H]1CC=C[C@H]2[C@H]1C(=O)N(Cc1ccccc1)[C@H]2c1ccoc1
Second: COc1ccc(Br)cc1[C@H]1[C@H]2C=CC[C@@H](C)[C@@H]2C(=O)N1Cc1ccccc1
The IC50 of the first is 2.7-fold lower: 2.5 µM for the first, 6.86 µM for the second. The first is the more potent here.

Going from `CC(C)C(=O)N1CCN(c2ccccc2NC(=O)c2ccc([N+](=O)[O-])o2)CC1` to `O=c1c2ccccc2nc(/C=C/c2ccc([N+](=O)[O-])o2)n1CCCO`, the IC50 rises from 1.82 µM to 4.49 µM (2.5-fold). The first is the more potent here.

`O=C(N/N=C/c1ccc[nH]1)c1cc(-c2ccc(Cl)cc2)nc2ccccc12` and `O=[N+]([O-])c1ccccc1N/N=C/c1c[nH]c2ccccc12` are within 1.5-fold of each other in IC50: 4.98 µM for the first, 5.11 µM for the second.

Going from `COC(=O)C(C(C)=O)C1=C/C(=N\S(=O)(=O)c2ccc(C)cc2)c2ccccc2C1=O` (stereo unspecified) to `CC1=C/C(=N\OS(=O)(=O)c2ccccc2)C(C)=CC1=O`, the IC50 falls from 3.81 µM to less than 0.2 µM. The second is the more potent here.

Going from `Cn1c(NCCCO)nc2c(c1=O)C1(CCCCC1)Cc1ccccc1-2` to `COC(=O)c1c(N2C(=O)CC(Sc3ccccc3C(=O)O)C2=O)sc2c1CCCC2` (stereo unspecified), the IC50 falls from 6.86 µM to 1.49 µM (4.6-fold). The second is the more potent here.

First: O=C1C2C3C=CC(CO)(O3)C2C(=O)N1c1ccccc1-c1ccccc1 (stereo unspecified)
Second: Clc1ccc(CNc2nc(CN3CCOCC3)nc3scc(-c4ccccc4)c23)cc1
The IC50 of the first is 3.9-fold lower: 1.27 µM for the first, 4.96 µM for the second. The first is the more potent here.

First: COc1ccc(-c2[nH]ncc2N=Nc2ccccc2)cc1
Second: CCCOc1ccc(CN(CCC#N)C(=S)NC(=O)c2ccccc2)cc1
The IC50 of the first is 1.7-fold lower: 5.88 µM for the first, 10.2 µM for the second. The first is the more potent here.

Going from `Cc1cc(/C=C\c2ccc3cc(N(C)C)ccc3[n+]2C)c(C)n1-c1ccccc1` to `CCSc1nc2ccccc2n1C(=O)/C=C\c1ccc(OC)c(OC)c1`, the IC50 rises from 3.92 µM to 7.72 µM (2-fold).

`Nc1ccccc1C(=O)/C=C/c1ccc2c(c1)OCO2` and `O=C(/C=C/c1ccc2c(c1)OCCCO2)c1ccccc1O` are within 1.5-fold of each other in IC50: 5.88 µM for the first, 4.68 µM for the second.

Going from `CCOC(=O)/C=C/C(=O)Nc1cccc([N+](=O)[O-])c1` to `N/C(=N\OC(=O)CCC1CCCC1)c1cccc([N+](=O)[O-])c1`, the IC50 rises from 1.9 µM to 8.32 µM (4.4-fold).

Compared with `O=C1CS(=O)(=O)N(Cc2cccc(F)c2)c2ccc(Br)cc21`, `O=C(OCn1ncc(Br)c(Br)c1=O)c1ccc(F)cc1` is 4.1-fold lower in IC50: 4.69 µM for the first, 1.15 µM for the second. The second is the more potent here.

Going from `COc1cc(C(=O)Nc2ccc(Cl)c(C(F)(F)F)c2)cc(OC)c1OC` to `O=C(Nc1cccc(N2C(=O)C=CC2=O)c1)c1cccs1`, the IC50 falls from 27.1 µM to 2.61 µM (10-fold). The second is the more potent here.

Going from `Cc1onc(-c2ccc3c(c2)OCO3)c1-c1ccc2[nH]ccc2c1` to `CN(C)CCCN(C(=O)c1cc2cc([N+](=O)[O-])ccc2s1)c1nc2cc3c(cc2s1)OCCO3`, the IC50 rises from 3.49 µM to 10.8 µM (3.1-fold).

First: COc1ccc2sc(N(CCCN(C)C)C(=O)c3ccc(S(=O)(=O)N4CCCc5ccccc54)cc3)nc2c1
Second: Cc1ccc(S(=O)(=O)c2nc(S(C)(=O)=O)sc2N2CCCCC2C)cc1 (stereo unspecified)
The IC50 of the first is 3.7-fold higher: 8.76 µM for the first, 2.35 µM for the second. The second is the more potent here.

`Cn1c(Cl)cnc1C1CC(=O)c2cc(Cl)ccc2O1` (stereo unspecified) and `CC(C)Nc1nnc(Sc2ccc(Cl)cc2[N+](=O)[O-])s1` are within 1.5-fold of each other in IC50: 1.98 µM for the first, 2.28 µM for the second.

First: CC(C)CN(CC(C)C)C(=S)Nc1ccc(Cl)cc1
Second: Cc1ccc(OCC(=O)O/N=C(\N)Cc2ccc(Cl)cc2)cc1
The IC50 of the first is 5.2-fold lower: 11 µM for the first, 56.7 µM for the second. The first is the more potent here.

First: O=C(OCn1ncc(Br)c(Br)c1=O)c1ccccc1Cl
Second: CCOC(=O)c1cc(-c2cccs2)nc2c1c(C)nn2-c1ccccn1
The IC50 of the first is 6.3-fold lower: 1.41 µM for the first, 8.92 µM for the second. The first is the more potent here.

Compared with `CC1=C/C(=N\OS(=O)(=O)c2ccccc2)C=CC1=O`, `COc1ccc(Cl)cc1NC(=O)CN(C)C(=O)C12CC3CC(CC(Cl)(C3)C1)C2` is 46-fold higher in IC50: 0.26 µM for the first, 12 µM for the second.

`N/C(=N\OC(=O)c1ccc(Cl)cc1)c1ccc(Cl)cc1` was tested, and the IC50 was > 100 µM (inactive).
With `N/C(=N\OC(=O)c1ccc(F)cc1)c1ccc(Br)cc1` the IC50 was > 100 µM (inactive).
